Data reported in US20090023163A1, “Method of Measuring Enzyme Activity and Method of Evaluating Compound” (priority 2005, published 2009).

Columns and labels:
Type in all cases: biochemical
[1] = molecular target: T1, hElovl-1 (human elongase of very long chain fatty acids-like 1) (Homo sapiens, UniProt Q9BW60); test: Measuring activity of hElovl-1 using N-Tag-hACBP (SPA); settings: HEK293 microsomal sample of hElovl-1, 40 μM long chain fatty acid CoA, 60 μM malonyl-CoA, 37° C. 2 hours, FIG. 3
T1 construct: implied by vector pCMV-Tag2B, own knowledge) (N); made in house; host or cells: HEK293, microsomal sample
T1 sequence (Q9BW60 1-279): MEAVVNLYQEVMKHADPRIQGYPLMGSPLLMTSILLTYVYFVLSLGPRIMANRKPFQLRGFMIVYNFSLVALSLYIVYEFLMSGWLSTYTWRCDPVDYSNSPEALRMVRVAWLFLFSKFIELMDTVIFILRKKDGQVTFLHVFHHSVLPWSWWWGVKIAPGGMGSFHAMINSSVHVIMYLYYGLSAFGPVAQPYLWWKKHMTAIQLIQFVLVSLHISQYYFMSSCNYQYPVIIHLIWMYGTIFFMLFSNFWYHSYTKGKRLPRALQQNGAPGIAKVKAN
Description: (§1) An assay buffer solution (100 mM sodium chloride, 100 mM Tris buffer solution, pH 6.5) containing the cell microsomal sample of hElovl-3 or hElovl-1 obtained by the above-mentioned preparation method, 1 μM rotenone (manufactured by Sigma), 1 mM NADPH (reduced nicotinamide adenine dinucleotide phosphate, manufactured by Sigma), 20 μM fatty acid-free bovine serum albumin (manufactured by Sigma), 40 μM long chain fatty acid CoA (manufactured by Sigma, manufactured by Avanti), and 50,000 dpm of 60 μM malonyl-CoA (manufactured by Sigma, Muromachi Yakuhin Kagaku) was incubated at 37° C. for 2 hours in a 96-well Opti-plate (Packard), and then, 0.25% octyl-beta-glucoside was added thereto to stop the reaction.
(§2) Subsequently, 2 μg of a human acyl-CoA-binding protein tagged with a His tag at the N terminus and 500 μg of SPA resin (PVT copper His-Tag SPA Beads, manufactured by Amersham) were added to the reaction solution, and the resulting mixture was incubated at 37° C. for 30 minutes, followed by centrifugation at 3,000 rpm, and an activity was measured using a Top Count (Packard).
(§3) In order to evaluate a specific activity, an expression vector in which either enzyme was not cloned was transfected into a host cell, HEK293 by the host cationic lipid method, and comparison was carried out with the microsomal sample obtained by a standard method from the expressing cell.

[2] = molecular target: T2, hElovl-3 (human elongase of very long chain fatty acids-like 3) (Homo sapiens, UniProt Q9HB03); test: Measuring activity of hElovl-3 using N-Tag-hACBP (SPA); settings: HEK293 microsomal sample of hElovl-3, 40 μM long chain fatty acid CoA, 60 μM malonyl-CoA, 37° C. 2 hours, FIG. 2
T2 construct: made in house; host or cells: HEK293, microsomal sample
T2 sequence (Q9HB03 1-270): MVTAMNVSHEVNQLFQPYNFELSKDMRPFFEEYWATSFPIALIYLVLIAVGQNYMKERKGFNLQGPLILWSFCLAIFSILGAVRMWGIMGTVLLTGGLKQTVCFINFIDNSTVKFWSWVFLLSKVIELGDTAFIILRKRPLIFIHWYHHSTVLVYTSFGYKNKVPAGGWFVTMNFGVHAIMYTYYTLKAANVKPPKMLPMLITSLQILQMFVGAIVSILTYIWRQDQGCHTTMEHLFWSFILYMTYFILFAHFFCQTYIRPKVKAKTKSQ
Description: as §1, §2, §3

[3] = molecular target: T3, hLCE (human long chain fatty acyl elongase) (Homo sapiens, UniProt Q9H5J4); test: Measuring LCE activity using N-Tag-hACBP (SPA); settings: yeast microsomal sample of hLCE, 40 μM long chain fatty acid CoA, 60 μM malonyl-CoA, 37° C. 2 hours, FIG. 1
T3 construct: made in house; host or cells: Pichia pastoris (yeast), microsomal sample
T3 sequence (Q9H5J4 1-265): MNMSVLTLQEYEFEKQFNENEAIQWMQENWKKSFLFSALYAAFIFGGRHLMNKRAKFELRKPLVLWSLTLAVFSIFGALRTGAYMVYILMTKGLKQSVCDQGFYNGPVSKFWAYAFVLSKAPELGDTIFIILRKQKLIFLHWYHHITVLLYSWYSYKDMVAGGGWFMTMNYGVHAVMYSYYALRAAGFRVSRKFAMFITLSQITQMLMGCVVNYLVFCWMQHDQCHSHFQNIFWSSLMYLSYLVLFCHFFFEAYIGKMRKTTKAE
Description: as §1, with “above-mentioned yeast” for “cell”, “sample,” for “sample of hElovl-3 or hElovl-1 obtained by the above-mentioned preparation method,”, “Sigma),” for “Sigma, manufactured by Avanti),”
Subsequently, 2 μg of a human acyl-CoA-binding protein tagged with a His tag at the N terminus and 500 μg of SPA resin (PVT copper His-Tag SPA Beads, manufactured by Amersham) were added thereto, and the resulting mixture was incubated at 37° C. for 30 minutes.
The solution after incubation was centrifuged at 3,000 rpm, and an activity was measured using a Top Count (Packard). Here, in order to evaluate a specific activity, an expression vector in which hLCE was not cloned was transfected into a host yeast, Pichia pastris by the electroporation method, whereby a transformed yeast was obtained. […]

Compound	enhancement of a signal (enzyme activity with the acyl-CoA used as the substrate) [1]	enhancement of a signal (enzyme activity with the acyl-CoA used as the substrate) [2]	enhancement of a signal (enzyme activity with the acyl-CoA used as the substrate) [3]
CCCCCCCCCCCCCCCCCCCC(=O)SCCNC(=O)CCNC(=O)[C@H](O)C(C)(C)COP(=O)(O)OP(=O)(O)OC[C@H]1O[C@@H](n2cnc3c(N)ncnc32)[C@H](O)[C@@H]1OP(=O)(O)O [arachidoyl-CoA]	specific enhancement of a signal was observed		
CCCCCCCCCCCCCCCCCCCCCCCC(=O)SCCNC(=O)CCNC(=O)[C@H](O)C(C)(C)COP(=O)(O)OP(=O)(O)OC[C@H]1O[C@@H](n2cnc3c(N)ncnc32)[C@H](O)[C@@H]1OP(=O)(O)O [lignoceroyl-CoA]	enhancement of a signal was not observed	enhancement of a signal was not observed	
CCCCCCCCCCCCCCCC(=O)SCCNC(=O)CCNC(=O)[C@H](O)C(C)(C)COP(=O)(O)OP(=O)(O)OC[C@H]1O[C@@H](n2cnc3c(N)ncnc32)[C@H](O)[C@@H]1OP(=O)(O)O [palmitoyl-CoA]			specific enhancement of a signal was observed
CCCCCCCCCCCCCCCCCC(=O)SCCNC(=O)CCNC(=O)[C@H](O)C(C)(C)COP(=O)(O)OP(=O)(O)OC[C@H]1O[C@@H](n2cnc3c(N)ncnc32)[C@H](O)[C@@H]1OP(=O)(O)O [stearoyl-CoA]		specific enhancement of a signal was observed	enhancement of a signal was not observed
